ChEMBL document CHEMBL1146842, “Design, synthesis, and biological evaluations of novel quinolones as HIV-1 non-nucleoside reverse transcriptase inhibitors” (Bioorg Med Chem Lett, 2006)

Experiments:
HEK293 = assay: Cytotoxicity against HEK293T cells; format: functional; conditions: Homo sapiens
[1] = system: Human immunodeficiency virus 1; assay: Antiviral activity against HIV1; format: functional, organism-based
[2] = system: Human immunodeficiency virus 1; assay: Antiviral activity against HIV1 V106A mutant; format: functional, organism-based
[3] = system: Human immunodeficiency virus 1; assay: Antiviral activity against HIV1 L100I mutant; format: functional, organism-based
[4] = system: Human immunodeficiency virus 1; assay: Antiviral activity against HIV1 Y188L mutant; format: functional, organism-based
[5] = system: Human immunodeficiency virus 1; assay: Antiviral activity against HIV1 Y181C mutant; format: functional, organism-based
[6] = system: Human immunodeficiency virus 1; assay: Antiviral activity against HIV1 K103N mutant; format: functional, organism-based
[7] = system: Human immunodeficiency virus 1; assay: Antiviral activity against HIV1 E138K mutant; format: functional, organism-based
[8] = system: Human immunodeficiency virus 1; assay: Antiviral activity against HIV1 I135V mutant; format: functional, organism-based
[9] = system: Human immunodeficiency virus 1; assay: Antiviral activity against HIV1 Y181H mutant; format: functional, organism-based
[10] = system: Human immunodeficiency virus 1; assay: Antiviral activity against HIV1 Y181S mutant; format: functional, organism-based
[11] = system: Human immunodeficiency virus 1; assay: Antiviral activity against HIV1 F227L mutant; format: functional, organism-based
[12] = system: Human immunodeficiency virus 1; assay: Antiviral activity against HIV1 V179E mutant; format: functional, organism-based

Compound	CC50 (HEK293)	EC50 [1]	EC50 [2]	EC50 [3]	EC50 [4]	EC50 [5]	EC50 [6]	EC50 [7]	EC50 [8]	EC50 [9]	EC50 [10]	EC50 [11]	EC50 [12]
CCCCC12CC1(C(=O)Nc1ccc(C(=O)O)cc1)C(=O)Nc1ccc(Cl)cc12 (stereo not given)	> 10000 nM	> 10000 nM											
CCOC(=O)C12CC1(CC)c1cc(Cl)ccc1NC2=O (stereo not given)	> 10000 nM	5040 nM											
CCOC(=O)C12CC1(CC(C)C)c1cc(Cl)ccc1NC2=O (stereo not given)	> 10000 nM	57 nM	2940 nM	63 nM	> 10000 nM	> 10000 nM	> 10000 nM	91 nM	85 nM	210 nM	901 nM	22 nM	3950 nM
CCCCCCC12CC1(C(=O)OCC)C(=O)Nc1ccc(Cl)cc12 (stereo not given)	> 10000 nM	25 nM	878 nM	53 nM	> 10000 nM	2250 nM	3080 nM	98 nM	66 nM	61 nM	929 nM	41 nM	1600 nM
CCCCC12CC1(C(=O)OCC)C(=O)Nc1ccc(Cl)cc12 (stereo not given)	> 10000 nM	3 nM	279 nM	14 nM	> 10000 nM	1650 nM	884 nM	47 nM	28 nM	9 nM	684 nM	7 nM	914 nM
CCCCC12CC1(C(=O)Nc1ccc(C(N)=O)cc1)C(=O)Nc1ccc(Cl)cc12 (stereo not given)	> 10000 nM	4550 nM											
CCCCC(=O)C12CC1(CCCC)c1cc(Cl)ccc1NC2=O (stereo not given)	> 10000 nM	6300 nM											
CCCCC12CC1(C(=O)Nc1ccccc1C(N)=O)C(=O)Nc1ccc(Cl)cc12 (stereo not given)	> 10000 nM	1330 nM											
CCCCCC12CC1(C(=O)OCC)C(=O)Nc1ccc(Cl)cc12 (stereo not given)	> 10000 nM	1 nM	238 nM	12 nM	> 10000 nM	926 nM	669 nM	18 nM	17 nM	16 nM	369 nM	5 nM	234 nM
CCCCC12CC1(C(=O)Nc1ccccn1)C(=O)Nc1ccc(Cl)cc12 (stereo not given)	> 10000 nM	2700 nM											
C=CCOCC12CC1(CCCC)c1cc(Cl)ccc1NC2=O (stereo not given)	> 10000 nM	240 nM											
CCOC(=O)C12CC1(c1ccc(-c3ccccc3)cc1)c1cc(Cl)ccc1NC2=O (stereo not given)	> 10000 nM	> 10000 nM											
CCCCC12CC1(C(N)=O)C(=O)Nc1ccc(Cl)cc12 (stereo not given)	> 10000 nM	12 nM	2180 nM	13 nM	> 10000 nM	7960 nM	3830 nM	46 nM	15 nM	63 nM	2520 nM	1 nM	439 nM
CCCCC12CC1(C(=O)CC1CC1)C(=O)Nc1ccc(Cl)cc12 (stereo not given)	> 10000 nM	5690 nM											
CCCCC12CC1(C(=O)N(C)CC)C(=O)Nc1ccc(Cl)cc12 (stereo not given)	> 10000 nM	> 10000 nM											
CCCCC12CC1(C(=O)N1CCC1)C(=O)Nc1ccc(Cl)cc12 (stereo not given)	> 10000 nM	> 10000 nM											
Cc1ccnc2c1NC(=O)c1cccnc1N2C1CC1 [NEVIRAPINE]	> 10000 nM		8460 nM		> 10000 nM	> 10000 nM		31 nM	79 nM	112 nM	3000 nM	148 nM	116 nM
CCCCC12CC1(C(=O)OCC=C(C)C)C(=O)Nc1ccc(Cl)cc12 (stereo not given)	> 10000 nM	2360 nM											
CCCC12CC1(C(=O)OCC)C(=O)Nc1ccc(Cl)cc12 (stereo not given)	> 10000 nM	45 nM	1010 nM	41 nM	> 10000 nM	> 10000 nM	> 10000 nM	132 nM	97 nM	210 nM	1210 nM	26 nM	1890 nM
CCOC(=O)C12CC1(C1CCCC1)c1cc(Cl)ccc1NC2=O (stereo not given)	> 10000 nM	3250 nM											
CCCCC12CC1(COC)C(=O)Nc1ccc(Cl)cc12 (stereo not given)	> 10000 nM	45 nM	726 nM	33 nM	> 10000 nM	5030 nM	2920 nM	42 nM	46 nM	121 nM	2700 nM	20 nM	721 nM
CCOC(=O)C12CC1(C1CC1)c1cc(Cl)ccc1NC2=O (stereo not given)	> 10000 nM	> 10000 nM											
CCCCC12CC1(C(=O)NCc1ccccc1)C(=O)Nc1ccc(Cl)cc12 (stereo not given)	8820 nM	2820 nM											
CCCCC1(C)c2cc(Cl)ccc2NC(=O)C1C(=O)OCC (stereo not given)	> 10000 nM	1400 nM											
CCOC(=O)C12CC1(C)c1cc(Cl)ccc1NC2=O (stereo not given)	> 10000 nM	> 10000 nM											
